The values that follow come from ChEMBL document CHEMBL1287771, “Novel hybrids of 15-membered 8a- and 9a-azahomoerythromycin A ketolides and quinolones as potent antibacterials” (2010).

Converted amounts (≈) assume the structure as drawn.

Format in all cases: functional
For assay [1], the system named is Staphylococcus aureus. Kind of assay: Antibacterial activity against erythromycin A-susceptible Staphylococcus aureus B0329 by agar microdilution method.
The test system of assay [2] is Staphylococcus aureus. Kind of assay: Antibacterial activity against constitutive macrolide-lincosamide-streptogramin B-resistant Staphylococcus aureus B0330 by agar microdilution method.
Assay [3] deals with Streptococcus pyogenes. Put plainly: Antibacterial activity against efflux-resistant Streptococcus pyogenes B0545 by agar microdilution method.
Assay [4] relates to Staphylococcus aureus. Kind of assay: Antibacterial activity against inducible macrolide-lincosamide-streptogramin B-resistant Staphylococcus aureus B0538 by agar microdilution method.
For assay [5], the system named is Staphylococcus aureus. Kind of assay: Antibacterial activity against efflux-resistant Staphylococcus aureus B0331 by agar microdilution method.
The subject of another assay is Moraxella catarrhalis. Put plainly: Antibacterial activity against Moraxella catarrhalis B0324 by agar microdilution method.
The subject of assay [6] is Streptococcus pyogenes. Put plainly: Antibacterial activity against constitutive macrolide-lincosamide-streptogramin B-resistant Streptococcus pyogenes B0544 by agar microdilution method.
Assay [7] relates to Streptococcus pyogenes. Put plainly: Antibacterial activity against inducible macrolide-lincosamide-streptogramin B-resistant Streptococcus pyogenes B0543 by agar microdilution method.
The test system of assay [8] is Streptococcus pneumoniae. Put plainly: Antibacterial activity against constitutive macrolide-lincosamide-streptogramin B-resistant Streptococcus pneumoniae B0627 by agar microdilution method.
In another assay the test system is Haemophilus influenzae. Kind of assay: Antibacterial activity against Haemophilus influenzae B0529 by agar microdilution method.
For assay [9], the system named is Streptococcus pneumoniae. Put plainly: Antibacterial activity against erythromycin A-susceptible Streptococcus pneumoniae B0541 by agar microdilution method.
In assay [10] the test system is Streptococcus pneumoniae. Kind of assay: Antibacterial activity against efflux-resistant Streptococcus pneumoniae B0326 by agar microdilution method.
The test system of assay [11] is Streptococcus pyogenes. Put plainly: Antibacterial activity against erythromycin A-susceptible Streptococcus pyogenes B0542 by agar microdilution method.

On to `CC[C@H]1OC(=O)[C@H](C)C(=O)[C@H](C)[C@@H](O[C@@H]2O[C@H](C)C[C@H](N(C)C)[C@H]2O)[C@](C)(OCC(O)CNCCNc2cc3c(=O)c(C(=O)O)cn(C4CC4)c3cc2Cl)C[C@@H](C)NC(=O)[C@H](C)[C@H](O)[C@@]1(C)O` (stereo partly drawn), for which the MIC is 1 µg/mL (≈ 1.03 µM) with Staphylococcus aureus [1]; greater than 64 µg/mL in the assay on Staphylococcus aureus [2]; 4 µg/mL (≈ 4.14 µM) with Streptococcus pyogenes [3]; 2 µg/mL (≈ 2.07 µM) in the assay with Staphylococcus aureus [4]; 0.5 µg/mL (≈ 0.517 µM) against Staphylococcus aureus [5]; 4 µg/mL (≈ 4.14 µM) in the assay on Moraxella catarrhalis. Besides, the MIC was 32 µg/mL (≈ 33.1 µM) against Streptococcus pyogenes [6]; 4 µg/mL (≈ 4.14 µM) with Streptococcus pyogenes [7]; 4 µg/mL (≈ 4.14 µM) with Streptococcus pneumoniae [8]; 8 µg/mL (≈ 8.28 µM) with Haemophilus influenzae; no more than 0.125 µg/mL with Streptococcus pneumoniae [9]; 1 µg/mL (≈ 1.03 µM) in the assay with Streptococcus pneumoniae [10]. Also, in the assay on Streptococcus pyogenes [11], the MIC is no more than 0.125 µg/mL.
Regarding `CC[C@H]1OC(=O)[C@H](C)[C@@H](O[C@@H]2C[C@@](C)(OC)[C@@H](O)[C@H](C)O2)[C@H](C)[C@@H](O[C@@H]2O[C@H](C)C[C@H](N(C)C)[C@H]2O)[C@](C)(OC/C=C/NCCc2ccc([N+](=O)[O-])cc2)C[C@@H](C)C(=O)N[C@H](C)[C@H](O)[C@@]1(C)O`, the MIC in the assay on Staphylococcus aureus [1] is 32 µg/mL (≈ 33.6 µM); in the assay with Staphylococcus aureus [2], greater than 64 µg/mL; in the assay on Streptococcus pyogenes [3] it was 16 µg/mL (≈ 16.8 µM); in the assay on Staphylococcus aureus [4], greater than 64 µg/mL; against Staphylococcus aureus [5] it was 32 µg/mL (≈ 33.6 µM); in the assay on Moraxella catarrhalis, 8 µg/mL (≈ 8.39 µM). The MIC against Streptococcus pyogenes [6] is greater than 64 µg/mL; in the assay with Streptococcus pyogenes [7] it was 4 µg/mL (≈ 4.2 µM); with Streptococcus pneumoniae [8], greater than 64 µg/mL; in the assay with Haemophilus influenzae, 64 µg/mL (≈ 67.1 µM); in the assay on Streptococcus pneumoniae [9] it was greater than 64 µg/mL; against Streptococcus pneumoniae [10] it was 16 µg/mL (≈ 16.8 µM). Further, in the assay on Streptococcus pyogenes [11], the MIC stood at 0.125 µg/mL (≈ 0.131 µM).
Regarding `CC[C@H]1OC(=O)[C@H](C)C(=O)[C@H](C)[C@@H](O[C@@H]2O[C@H](C)C[C@H](N(C)C)[C@H]2O)[C@](C)(OC)C[C@@H](C)C(=O)[C@H](C)[C@H]2N(CCCCn3cnc(-c4cccnc4)c3)C(=O)O[C@]12C` [TELITHROMYCIN], the MIC in the assay on Staphylococcus aureus [1] is no more than 0.125 µg/mL; in the assay with Staphylococcus aureus [2], greater than 64 µg/mL; against Streptococcus pyogenes [3], 0.25 µg/mL (≈ 0.308 µM); in the assay on Staphylococcus aureus [4], 0.5 µg/mL (≈ 0.616 µM); with Staphylococcus aureus [5] it was 0.25 µg/mL (≈ 0.308 µM); in the assay with Moraxella catarrhalis, no more than 0.125 µg/mL. The MIC against Streptococcus pyogenes [6] is 4 µg/mL (≈ 4.93 µM); in the assay with Streptococcus pyogenes [7], no more than 0.06 µg/mL; against Streptococcus pneumoniae [8], no more than 0.125 µg/mL; in the assay on Haemophilus influenzae it was 2 µg/mL (≈ 2.46 µM); with Streptococcus pneumoniae [9] it was 0.06 µg/mL (≈ 0.0739 µM); in the assay on Streptococcus pneumoniae [10], 0.5 µg/mL (≈ 0.616 µM). This compound also gave an MIC in the assay with Streptococcus pyogenes [11] of no more than 0.06 µg/mL.
For `CC[C@H]1OC(=O)[C@H](C)C(=O)[C@H](C)[C@@H](O[C@H]2C[C@H](O)[C@@H](N(C)C)[C@@H](C)O2)[C@](C)(OC/C=C/c2cnc3ccccc3c2)C[C@@H](C)/C(=N\O)[C@H](C)[C@@H](O)[C@]1(C)O`, the MIC in the assay on Staphylococcus aureus [1] was no more than 0.125 µg/mL; in the assay on Staphylococcus aureus [2], greater than 64 µg/mL; against Streptococcus pyogenes [3] it was no more than 0.125 µg/mL; against Staphylococcus aureus [4], no more than 0.125 µg/mL; in the assay with Staphylococcus aureus [5], 0.5 µg/mL (≈ 0.661 µM); in the assay with Moraxella catarrhalis it was 4 µg/mL (≈ 5.29 µM). For the same compound, the MIC against Streptococcus pyogenes [6] is 32 µg/mL (≈ 42.3 µM); against Streptococcus pyogenes [7] it was no more than 0.125 µg/mL; in the assay with Streptococcus pneumoniae [8], 4 µg/mL (≈ 5.29 µM); in the assay on Haemophilus influenzae it was 8 µg/mL (≈ 10.6 µM); in the assay on Streptococcus pneumoniae [9], no more than 0.125 µg/mL; in the assay with Streptococcus pneumoniae [10] it was no more than 0.125 µg/mL. Besides, the MIC against Streptococcus pyogenes [11] was no more than 0.125 µg/mL.
`CC[C@H]1OC(=O)[C@H](C)C(=O)[C@H](C)[C@@H](O[C@@H]2O[C@H](C)C[C@H](N(C)C)[C@H]2O)[C@](C)(OCC(O)CNC2CN(S(=O)(=O)c3ccc4ccncc4c3)CCN2)C[C@@H](C)NC(=O)[C@H](C)[C@H](O)[C@@]1(C)O` (stereo partly drawn): the MIC was 8 µg/mL (≈ 8.54 µM) against Staphylococcus aureus [1]; greater than 64 µg/mL against Staphylococcus aureus [2]; 16 µg/mL (≈ 17.1 µM) in the assay on Streptococcus pyogenes [3]; 16 µg/mL (≈ 17.1 µM) in the assay on Staphylococcus aureus [4]; 16 µg/mL (≈ 17.1 µM) with Staphylococcus aureus [5]; 8 µg/mL (≈ 8.54 µM) in the assay with Moraxella catarrhalis. Further, the MIC in the assay with Streptococcus pyogenes [6] is greater than 64 µg/mL; against Streptococcus pyogenes [7] it was 16 µg/mL (≈ 17.1 µM); in the assay on Streptococcus pneumoniae [8], 32 µg/mL (≈ 34.1 µM); against Haemophilus influenzae, greater than 64 µg/mL; with Streptococcus pneumoniae [9], no more than 0.125 µg/mL; in the assay with Streptococcus pneumoniae [10] it was 64 µg/mL (≈ 68.3 µM). In the assay with Streptococcus pyogenes [11], this compound gave an MIC of no more than 0.125 µg/mL.
On to `C=CCO[C@]1(C)C[C@@H](C)NC(=O)[C@H](C)[C@H](O)[C@@](C)(O)[C@@H](CC)OC(=O)[C@H](C)C(=O)[C@H](C)[C@H]1O[C@@H]1O[C@H](C)C[C@H](N(C)C)[C@H]1O`, for which the MIC against Staphylococcus aureus [1] was 2 µg/mL (≈ 3.18 µM); with Staphylococcus aureus [2], greater than 64 µg/mL; with Streptococcus pyogenes [3], 8 µg/mL (≈ 12.7 µM); against Staphylococcus aureus [4] it was 2 µg/mL (≈ 3.18 µM); in the assay on Staphylococcus aureus [5] it was 8 µg/mL (≈ 12.7 µM); in the assay with Moraxella catarrhalis, no more than 0.125 µg/mL. For the same compound, the MIC against Streptococcus pyogenes [6] was greater than 64 µg/mL; against Streptococcus pyogenes [7], 16 µg/mL (≈ 25.4 µM); against Streptococcus pneumoniae [8], greater than 64 µg/mL; in the assay on Haemophilus influenzae, 16 µg/mL (≈ 25.4 µM); against Streptococcus pneumoniae [9], no more than 0.125 µg/mL; with Streptococcus pneumoniae [10] it was 16 µg/mL (≈ 25.4 µM). For the same compound, in the assay with Streptococcus pyogenes [11], the MIC worked out at 0.25 µg/mL (≈ 0.398 µM).
